Test results published in patent US7820672B2, “Indolylmaleimide derivatives” (Novartis AG, priority 2003, dated 2010).

Key:
Human recombinant PKCθ = Human recombinant PKCθ (Homo sapiens, UniProt Q04759); test: Protein Kinase C θ assay; format: biochemical
Protocol: (§1) The compounds of formula I are tested for their activity on different PKC isoforms according to a published method (D. Geiges et al. Biochem. Pharmacol. 1997; 53:865-875) The assay is performed in a 96-well polypropylene microtiterplate (Costar 3794) that has been previously siliconized with Sigmacote (Sigma SL-2). The reaction mixture (50 μl) contains 10 μl of the relevant PKC isozyme together with 25 μl of the test compound and 15 μl of a mix solution that contains 200 μg/ml protamine sulfate, 10 mM Mg(NO3)2, 10 μM ATP (Boehringer 519987) and 3750 Bq of ^33P-ATP (Hartmann Analytic SFC301, 110 TBq/mmol) in 20 mM Tris-buffer pH 7.4+0.1% BSA. Incubation is performed for 15 min at 32° C. in a microtiterplate shaking incubator (Biolabo Scientific Instruments). Reaction is stopped by adding 10 μl of 0.5 M Na2EDTA, pH 7.4. 50 μl of mixture are pipetted onto a pre-wetted phosphocellulose paper (Whatmann 3698-915) under gentle pressure. Non-incorporated ATP is washed away with 100 μl bi-dist H2O. The paper is washed twice in 0.5% H3PO4 for 15 min followed by 5 min in EtOH. Thereafter the paper is dryed and placed in an omnifilter (Packard 6005219), and overlayed with 10 μl/well of Microscint-O (Packard 6013611) before counting in a Topcount radioactivity counter (Packard). IC50 measurement is performed on a routine basis by incubating a serial dilution of inhibitor at concentrations ranging between 1-1000 μM according to the method described above. IC50 value are calculated from the graph by sigmoidal curve fitting.
Human recombinant PKCθ is used under the assay conditions as described above. In this assay, compounds of formula I inhibit PKC θ with an IC50≦1 μM.

lymph node enlargement = test: Graft v. host model; format: in vivo, rat; conditions: days 0-3, lymph nodes removed day 7
Protocol: Spleen cells (2×10^7) from Wistar/F rats are injected subcutaneously into the right hind footpad of (Wistar/F×Fischer 344)F1 hybrid rats. The left footpad is left untreated. The animals are treated with the test compounds on 4 consecutive days (0-3). The popliteal lymph nodes are removed on day 7, and the weight differences between two corresponding lymph nodes are determined. The results are expressed as the inhibition of lymph node enlargement (given in percent) comparing the lymph node weight differences in the experimental groups to the weight difference between the corresponding lymph nodes from a group of animals left untreated with a test compound. In this assay, an inhibition of 100% is obtained with compound of Example 1 or 10 when administered at a dose of 30 or 10 mg/kg bid, respectively.

Human recombinant PKCα = biological target: T1, Human recombinant PKCα (Homo sapiens, UniProt P17252); test: Protein Kinase Cα assay; format: biochemical
T1 construct: purchased Oxford Biomedical Research
Protocol: as §1
Human recombinant PKCα was obtained from Oxford Biomedical Research and is used under the assay conditions as described under Section A.1 above. In this assay, compounds of formula I inhibit PKCα with an IC50≦1 μM.

Human recombinant PKCβ1 = biological target: T2, Human recombinant PKCβ1 (Homo sapiens, UniProt P05771); test: Protein Kinase Cβ1 assay; format: biochemical
T2 construct: purchased Oxford Biomedical Research
Protocol: as §1
Human recombinant PKCβ1 was obtained from Oxford Biomedical Research and is used under the assay conditions as described under Section A.1 above. In this assay, compounds of formula I inhibit PKCβ1 with an IC50≦1 μM.

Human recombinant PKCδ = biological target: T3, Human recombinant PKCδ (Homo sapiens, UniProt Q05655); test: Protein Kinase Cδ assay; format: biochemical
T3 construct: purchased Oxford Biomedical Research
Protocol: as §1, with “IC50 measurement is performed on a routine basis by incubating a serial dilution of inhibitor at concentrations ranging between 1-1000 μM according to the method described above.” left out, “fitting. […]” for “fitting.”

Human recombinant PKCε = biological target: T4, Human recombinant PKCε (Homo sapiens, UniProt Q02156); test: Protein Kinase Cε assay; format: biochemical; conditions: read-out: IC50 in Protein Kinase Cε assay (sentence prints PKCδ)
T4 construct: purchased Oxford Biomedical Research
T4 sequence (Q02156 1-737): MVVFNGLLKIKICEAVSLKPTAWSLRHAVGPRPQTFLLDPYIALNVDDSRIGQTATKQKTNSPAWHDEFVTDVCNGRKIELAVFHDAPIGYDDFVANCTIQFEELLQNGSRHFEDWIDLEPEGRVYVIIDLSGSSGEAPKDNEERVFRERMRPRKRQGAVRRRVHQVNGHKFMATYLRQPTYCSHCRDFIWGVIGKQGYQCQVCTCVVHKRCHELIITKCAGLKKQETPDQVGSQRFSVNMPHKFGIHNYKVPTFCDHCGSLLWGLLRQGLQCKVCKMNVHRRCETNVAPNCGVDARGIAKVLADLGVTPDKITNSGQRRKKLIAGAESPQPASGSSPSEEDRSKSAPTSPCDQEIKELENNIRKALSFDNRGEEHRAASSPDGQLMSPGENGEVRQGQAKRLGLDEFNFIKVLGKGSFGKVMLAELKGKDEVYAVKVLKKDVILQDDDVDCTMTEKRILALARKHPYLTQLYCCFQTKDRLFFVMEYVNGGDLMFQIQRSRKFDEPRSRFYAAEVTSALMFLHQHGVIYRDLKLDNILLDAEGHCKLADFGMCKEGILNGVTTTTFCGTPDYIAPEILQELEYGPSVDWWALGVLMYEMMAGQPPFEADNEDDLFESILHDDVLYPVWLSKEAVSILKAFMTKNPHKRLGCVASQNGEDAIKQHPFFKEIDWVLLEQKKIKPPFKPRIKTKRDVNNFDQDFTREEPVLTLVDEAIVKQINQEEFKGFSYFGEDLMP
Protocol: as §1, with “IC50 measurement is performed on a routine basis by incubating a serial dilution of inhibitor at concentrations ranging between 1-1000 μM according to the method described above.” left out, “fitting. […]” for “fitting.”

Human recombinant PKCη = biological target: T5, Human recombinant PKCη (Homo sapiens, UniProt P24723); test: Protein Kinase Cη assay; format: biochemical
T5 construct: purchased PanVera
Protocol: as §1, with “IC50 measurement is performed on a routine basis by incubating a serial dilution of inhibitor at concentrations ranging between 1-1000 μM according to the method described above.” left out, “fitting. […]” for “fitting.”

[1] = test system: Jurkat cells transfected with a human interleukin-2 promoter/reporter gene construct; test: CD28 costimulation assay (IL-2 promoter/luciferase reporter); format: cell-based; conditions: stimulated Jurkat cells, luciferase reporter
Protocol: The assay is performed with Jurkat cells transfected with a human interleukin-2 promoter/reporter gene construct as described by Baumann G et al. in Transplant Proc. 1992; 24:43-8, the β-galactosidase reporter gene being replaced by the luciferase gene (de Wet J., et al., Mol. Cell Biol. 1987, 7(2), 725-737). Cells are stimulated by solid phase-coupled antibodies or phorbol myristate acetate (PMA) and the Ca^++ ionophore ionomycin as follows. For antibody-mediated stimulation Microlite TM1 microtiter plates (Dynatech) are coated with 3 μg/ml goat anti-mouse IgG Fc antibodies (Jackson) in 55 μl phosphate-buffered saline (PBS) per well for three hours at RT. Plates are blocked after removing the antibodies by incubation with 2% bovine serum albumin (BSA) in PBS (300 μl per well) for 2 hours at RT. After washing three times with 300 μl PBS per well, 10 ng/ml anti-T cell receptor antibodies (WT31, Becton & Dickinson) and 300 ng/ml anti-CD28 antibodies (15E8) in 50 μl 2% BSA/PBS are added as stimulating antibodies and incubated overnight at 4° C. Finally the plates are washed three times with 300 μl PBS per well. Seven three-fold serial dilutions of test compounds in duplicates in assay medium (RPMI 1640/10% fetal calf serum (FCS) containing 50 μM 2-mercaptoethanol, 100 units/ml penicillin and 100 μg/ml streptomycin) are prepared in separate plates, mixed with transfected Jurkat cells (clone K22 290_H23) and incubated for 30 minutes at 37° C. in 5% CO2. […] After incubation for 5.5 hours at 37° C. in 5% CO2, the level of luciferase is determined by bioluminescence measurement. […] Luciferase activity is assessed with a bioluminescence reader (Labsystem, Helsinki, Finland) after automatic addition of 50 μl per well luciferase reaction buffer containing 20 mM Tricine, 1.07 mM (MgCO3)4Mg(OH)2×5H2O, 2.67 mM MgSO4, 0.1 mM EDTA, 33.3 mM DTT, 270 μM coenzyme A, 470 μM luciferin (Chemie Brunschwig AG), 530 μM ATP, pH 7.8. […] The inhibition obtained in the presence of a test compound is calculated as percent inhibition of the high control. […]

[2] = test system: spleen cells from CBA and BALB/c mice; test: Allogeneic mixed lymphocyte reaction (MLR); format: cell-based; conditions: Mus musculus, two-way MLR, 3H-thymidine incorporation
Protocol: The two-way MLR is performed according to standard procedures (J. Immunol. Methods, 1973, 2, 279 and Meo T. et al., Immunological Methods, New York, Academic Press, 1979, 227-39). Briefly, spleen cells from CBA and BALB/c mice (1.6×10^5 cells from each strain per well in flat bottom tissue culture microtiter plates, 3.2×10^5 in total) are incubated in RPMI medium containing 10% FCS, 100 U/ml penicillin, 100 μg/ml streptomycin (Gibco BRL, Basel, Switzerland), 50 μM 2-mercaptoethanol (Fluka, Buchs, Switzerland) and serially diluted compounds. Seven three-fold dilution steps in duplicates per test compound are performed. After four days of incubation 1 μCi ^3H-thymidine is added. Cells are harvested after an additional five-hour incubation period, and incorporated ^3H-thymidine is determined according to standard procedures. Background values (low control) of the MLR are the proliferation of BALB/c cells alone. Low controls are subtracted from all values. High controls without any sample are taken as 100% proliferation. Percent inhibition by the samples is calculated, and the concentrations required for 50% inhibition (IC50 values) are determined.

GSK-3β = GSK-3β (Homo sapiens, UniProt P49841); test: Inhibition of GSK-3β; format: biochemical
Protocol: The GSK-3β bidding assay is performed in 50 μl reactions in 96 well polypropylene plate, each reaction containing 20 mM magnesium chloride, 40 μM ATP, 2 mM DTT, 88.5 μM biotinylated and phosphorylated CREB-peptide substrate (biotin-KRREILSRRPS(PO4)YR—OH; Q. M. Wang et al., J. Biol. Chem. 269, 14566-14574, 1994), [γ-^33P]ATP (1 μCi) and 2 μl of the compound to be tested in DMSO (various concentrations). 15 μl of GSK-3β (various concentrations) is added and the mixture is incubated at 30° C. for 1 hour. The reaction is stopped by transferring 25 μl of the mixture to a phosphocellulose plate containing 130 μl of 1.85% phosphoric acid. The free radionucleotides in the membrane are washed off under vacuum with 1.85% phosphoric acid (5 times). After the last wash, the plate is transferred to an adaptor plate and 50 μl of scintillation cocktail (Microscint-20, Packard, cat. # 20-133) is added to each well and the amount of radioactivity is counted in a top counter. Compounds of formula I are active in this assay.

T2 sequence (P05771 whole entry): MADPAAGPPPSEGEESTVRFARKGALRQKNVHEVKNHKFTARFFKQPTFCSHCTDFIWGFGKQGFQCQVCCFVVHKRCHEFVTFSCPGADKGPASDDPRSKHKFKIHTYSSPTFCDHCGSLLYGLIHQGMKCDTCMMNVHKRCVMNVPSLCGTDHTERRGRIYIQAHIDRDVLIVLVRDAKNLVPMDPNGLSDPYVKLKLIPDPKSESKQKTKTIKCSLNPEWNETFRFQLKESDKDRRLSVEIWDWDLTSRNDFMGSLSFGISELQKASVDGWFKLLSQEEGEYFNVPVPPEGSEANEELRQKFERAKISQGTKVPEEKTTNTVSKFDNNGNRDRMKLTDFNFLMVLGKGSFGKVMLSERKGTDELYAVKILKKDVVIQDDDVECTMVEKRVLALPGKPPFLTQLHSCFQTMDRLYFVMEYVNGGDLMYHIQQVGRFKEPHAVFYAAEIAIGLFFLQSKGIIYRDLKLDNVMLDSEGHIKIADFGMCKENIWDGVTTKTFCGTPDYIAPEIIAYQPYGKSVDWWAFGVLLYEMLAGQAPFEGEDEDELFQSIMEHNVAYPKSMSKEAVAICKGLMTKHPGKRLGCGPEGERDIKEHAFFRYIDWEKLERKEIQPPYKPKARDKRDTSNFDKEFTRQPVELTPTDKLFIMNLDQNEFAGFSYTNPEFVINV
Human recombinant PKCθ, sequence (Q04759 whole entry, canonical isoform): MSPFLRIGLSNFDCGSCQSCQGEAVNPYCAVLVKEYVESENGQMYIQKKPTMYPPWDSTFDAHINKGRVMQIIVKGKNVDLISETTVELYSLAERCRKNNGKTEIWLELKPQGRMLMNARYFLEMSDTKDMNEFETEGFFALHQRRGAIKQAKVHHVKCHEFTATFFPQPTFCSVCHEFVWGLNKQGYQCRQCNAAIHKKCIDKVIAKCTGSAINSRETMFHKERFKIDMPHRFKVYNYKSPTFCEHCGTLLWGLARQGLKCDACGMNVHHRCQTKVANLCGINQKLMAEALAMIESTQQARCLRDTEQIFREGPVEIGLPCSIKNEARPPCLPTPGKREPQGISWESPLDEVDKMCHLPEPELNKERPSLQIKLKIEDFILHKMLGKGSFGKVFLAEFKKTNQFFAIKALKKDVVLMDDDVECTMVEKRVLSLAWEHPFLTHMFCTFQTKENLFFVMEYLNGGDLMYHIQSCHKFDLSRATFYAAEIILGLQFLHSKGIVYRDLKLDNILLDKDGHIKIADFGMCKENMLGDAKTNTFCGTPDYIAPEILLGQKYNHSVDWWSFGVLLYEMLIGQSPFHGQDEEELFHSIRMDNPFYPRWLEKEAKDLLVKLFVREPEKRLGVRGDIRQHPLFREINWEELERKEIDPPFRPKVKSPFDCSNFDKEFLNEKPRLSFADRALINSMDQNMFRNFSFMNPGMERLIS
GSK-3β, sequence (P49841 whole entry, species assumed): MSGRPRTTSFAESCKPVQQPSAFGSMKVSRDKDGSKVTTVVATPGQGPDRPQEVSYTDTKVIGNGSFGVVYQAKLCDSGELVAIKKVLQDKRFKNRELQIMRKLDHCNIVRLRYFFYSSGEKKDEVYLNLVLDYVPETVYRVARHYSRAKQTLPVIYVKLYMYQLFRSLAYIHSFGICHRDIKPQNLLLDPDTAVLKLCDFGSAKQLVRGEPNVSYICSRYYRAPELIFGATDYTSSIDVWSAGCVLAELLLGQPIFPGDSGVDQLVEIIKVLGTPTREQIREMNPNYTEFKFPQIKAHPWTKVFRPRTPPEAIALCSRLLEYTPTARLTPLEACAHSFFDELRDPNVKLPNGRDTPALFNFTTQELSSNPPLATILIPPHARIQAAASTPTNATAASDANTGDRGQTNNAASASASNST
T3 sequence (Q05655 whole entry): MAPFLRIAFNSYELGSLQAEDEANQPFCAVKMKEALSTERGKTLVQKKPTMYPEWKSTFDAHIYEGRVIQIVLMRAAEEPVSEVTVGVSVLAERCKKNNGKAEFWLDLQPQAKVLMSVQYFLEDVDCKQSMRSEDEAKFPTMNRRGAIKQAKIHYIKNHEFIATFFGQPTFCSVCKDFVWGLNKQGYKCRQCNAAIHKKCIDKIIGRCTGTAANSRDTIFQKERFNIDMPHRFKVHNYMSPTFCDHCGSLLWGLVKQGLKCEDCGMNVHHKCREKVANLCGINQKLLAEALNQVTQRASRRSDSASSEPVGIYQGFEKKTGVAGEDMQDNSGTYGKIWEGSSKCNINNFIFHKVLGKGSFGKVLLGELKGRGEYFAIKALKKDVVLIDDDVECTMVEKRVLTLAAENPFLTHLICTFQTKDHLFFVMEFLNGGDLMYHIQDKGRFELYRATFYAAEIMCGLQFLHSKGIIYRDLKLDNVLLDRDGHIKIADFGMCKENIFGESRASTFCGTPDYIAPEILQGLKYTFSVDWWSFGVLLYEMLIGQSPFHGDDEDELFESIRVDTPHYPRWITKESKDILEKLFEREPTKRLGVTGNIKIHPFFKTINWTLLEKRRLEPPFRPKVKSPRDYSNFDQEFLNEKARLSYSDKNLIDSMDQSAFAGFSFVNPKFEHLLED
T5 sequence (P24723 whole entry): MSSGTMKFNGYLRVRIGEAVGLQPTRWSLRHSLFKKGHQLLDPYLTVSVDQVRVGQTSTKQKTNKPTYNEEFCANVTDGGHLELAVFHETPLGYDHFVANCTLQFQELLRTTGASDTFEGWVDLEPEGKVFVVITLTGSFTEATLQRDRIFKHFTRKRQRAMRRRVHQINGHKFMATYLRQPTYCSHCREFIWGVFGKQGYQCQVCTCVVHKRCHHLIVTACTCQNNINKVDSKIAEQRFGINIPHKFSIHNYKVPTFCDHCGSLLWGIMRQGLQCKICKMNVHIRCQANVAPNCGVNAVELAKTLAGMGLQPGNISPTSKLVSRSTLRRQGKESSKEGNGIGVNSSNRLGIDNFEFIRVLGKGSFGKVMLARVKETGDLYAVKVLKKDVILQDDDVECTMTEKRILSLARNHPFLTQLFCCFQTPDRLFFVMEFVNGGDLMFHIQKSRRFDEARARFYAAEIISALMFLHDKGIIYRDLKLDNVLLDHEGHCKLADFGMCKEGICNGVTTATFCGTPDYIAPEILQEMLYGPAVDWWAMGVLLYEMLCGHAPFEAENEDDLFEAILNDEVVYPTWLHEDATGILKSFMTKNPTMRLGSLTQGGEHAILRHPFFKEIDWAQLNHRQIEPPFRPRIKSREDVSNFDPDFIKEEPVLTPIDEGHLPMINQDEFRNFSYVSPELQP

Structure (SMILES)	IC50 (Human recombinant PKCθ) [nM]	inhibition of lymph node enlargement (lymph node enlargement; 10 mg/kg bid) [%]	IC50 (Human recombinant PKCα) [nM]	IC50 (Human recombinant PKCβ1) [nM]	IC50 (Human recombinant PKCδ) [nM]	IC50 (Human recombinant PKCε) [nM]	IC50 (Human recombinant PKCη) [nM]	IC50 [1] [nM]	IC50 [2] [nM]	IC50 (GSK-3β) [nM]	inhibition of lymph node enlargement (lymph node enlargement; 30 mg/kg bid) [%]
CN1CCN(c2ccc(Cl)c(C3=C(c4c[nH]c5ccccc45)C(=O)NC3=O)n2)CC1 [Example 10]	5.8	100	–	–	–	–	–	–	–	–	–
Cc1cccc2c(C3=C(c4c(Cl)ccc5[nH]c(CN(C)C)cc45)C(=O)NC3=O)c[nH]c12 [Example 41]	9.3	–	7.5	14.9	29.5	7.6	15	28.3	32.5	25	–
CN(C)Cc1cc2c(C3=C(c4cn(C)c5ccccc45)C(=O)NC3=O)cccc2[nH]1 [Example 39]	–	–	6.3	13.2	–	–	–	46.7	285	–	–
CN1CCN(c2ccc(C(F)(F)F)c(C3=C(c4c[nH]c5ccccc45)C(=O)NC3=O)n2)CC1 [Example 1, 3-(1H-Indol-3-yl)-4-[6-(4-methyl-piperazin-1-yl)-3-tifluoromethyl-pyridin-2-yl]-pyrrole-2,5-dione]	5.4	–	2.9	5.9	21	14.7	15.3	13	28.8	18	100
